The record followed here is patent publication US4371537A, “Sulfur-substituted phenoxypyridines having antiviral activity” (The Dow Chemical Company, priority 1981, dated 1983).

Converted amounts (≈) assume the structure as drawn.

In experiment [1] the test system is rhinovirus type 1A (RV-1A). The experiment is described as follows: Tissue culture testing, rhinovirus type 1A in HeLa cells. In kind it is cell-based. The conditions noted are these: Enterovirus, 48 and 72 hours, NA = not active at the standard test conditions, read-out: RV-1A: lowest concentration of the compound necessary to cause a 50 percent reduction in cytopathic effect. The essentials: (§1)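 Compound-containing Eagle's medium plus fetal calf serum was applied to monolayered HeLa cells before virus challenge, with untreated and virus-free controls. Activity expressed as minimum effective compound concentration in μg/ml.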

For experiment [2], the system named is Coxsackie A21 virus (Cox A21). The experiment is described as follows: Tissue culture testing, Coxsackie A21 virus in HeLa cells. The conditions noted are these: 48 and 72 hours, NA = not active at the standard test conditions, read-out: Cox A21: lowest concentration of the compound necessary to cause a 50 percent reduction in cytopathic effect. In kind it is cell-based. The essentials: as §1

The subject of experiment [3] is rhinovirus type 5 (RV-5). The experiment is described as follows: Tissue culture testing, rhinovirus type 5 in HeLa cells. It is filed as cell-based. The conditions noted are these: Enterovirus, 48 and 72 hours, NA = not active at the standard test conditions, read-out: RV-5: lowest concentration of the compound necessary to cause a 50 percent reduction in cytopathic effect. On the procedure: (§2) Monolayered HeLa cells in 16 millimeter (mm) tissue culture dishes were treated with 1 ml of culture medium (Eagles medium supplemented with fetal calf serum) containing subject compound at an appropriate concentration or containing no compound at all. Culture media such as those described herein are more fully described in standard texts, as for example, Kuchler's Biochemical Methods in Cell Culture and Virology, Dowden, Hutchinson and Ross, Inc., Stroudsberg, PA (1977). Following treatment, cells were challenged with 0.05 ml of rhinovirus type 1A (RV-1A), rhinovirus type 2 (RV-2) or Coxsackie A21 virus (Cox A21) in culture medium. Some of the compounds were also tested against rhinovirus type 5 (RV-5), rhinovirus type 8 (RV-8) or rhinovirus type 64 (RV-64). Cell controls received no viruses.
(§3) ^2 Lowest concentration of the compound (μg/ml) necessary to cause

In experiment [4] the test system is rhinovirus type 8 (RV-8). Briefly: Tissue culture testing, rhinovirus type 8 in HeLa cells. In kind it is cell-based. Conditions: Enterovirus, 48 and 72 hours, NA = not active at the standard test conditions, read-out: RV-8: lowest concentration of the compound necessary to cause a 50 percent reduction in cytopathic effect. The procedure:
as §2, §3

In experiment [5] the test system is Coxsackie A21 virus. Briefly: Continuous Oral Feeding test in mice challenged IP with Coxsackie A21 virus. It is filed as in vivo. The conditions noted are these: po, 0.06 % in diet, 240 h. An outline of the steps: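 Mice (8 to 12 g) fed rodent chow containing 0.06% (weight percent) test compound from day 0, challenged IP on day 1 with 0.2 ml HeLa-grown virus at a dose giving 80 to 100% deaths within 10 days. Deaths recorded over 10 days versus controls; chi-square test, values >3.84 taken as active (95% confidence).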

Experiment [6] has as its system Rhinovirus Type 8. The experiment is described as follows: Inhibition of cytopathic effect in WI-38 cell culture tubes, rhinovirus type 8. It is filed as cell-based. Conditions: Enterovirus, WI-38 cells, read-out: Inhibition grade, Rhinovirus Type 8; for inhibition at 25 µg/mL: 25 μg/ml. The procedure:
(§4) The test compound was dissolved in an appropriate solvent (generally dimethyl sulfoxide) and incubated at 56° C. for at least 15 minutes and this solution was then used to prepare various test solutions having the desired concentration of test compound in preheated WI maintenance medium (49% Eagles, 49% medium 199, 2% fetal calf serum and antibiotics).
(§5) Triplicate cell culture tubes (WI-38 human embryonic lung cell culture tubes) were fed with 1 ml of medium containing the compound at specified concentrations and inoculated with 3-300 TCID50 (3-300 times the tissue culture infective dose 50, i.e., the dose required to infect 50% of the cell cultures tested). Simultaneous viral titrations were performed. The tissue cultures were supplemented with fresh medium when necessary (around 3-4 days) until viral titrations were completed.
(§6) The cell culture tubes were examined dialy for cytopathic effect. […] Comparisons were made at that time with the percentage of cell sheet destruction in tubes containing virus compound mixtures. Observed differences of 75% or more were graded "+", 74-50% as "±", and less than 50% as "-" inhibition.

In experiment [7] the test system is Rhinovirus Type 13. The experiment is described as follows: Inhibition of cytopathic effect in WI-38 cell culture tubes, rhinovirus type 13. In kind it is cell-based. Conditions: Enterovirus, WI-38 cells, read-out: Inhibition grade, Rhinovirus Type 13; for inhibition at 25 µg/mL: 25 μg/ml. The procedure: as §4, §5, §6
In experiment [8] the test system is Rhinovirus Type 19. The experiment is described as follows: Inhibition of cytopathic effect in WI-38 cell culture tubes, rhinovirus type 19. The conditions noted are these: Enterovirus, WI-38 cells, read-out: Inhibition grade, Rhinovirus Type 19; for inhibition at 25 µg/mL: 25 μg/ml. It is filed as cell-based. On the procedure: as §4, §5, §6
The test system of experiment [9] is Rhinovirus Type 81. Briefly: Inhibition of cytopathic effect in WI-38 cell culture tubes, rhinovirus type 81. It is filed as cell-based. Conditions: Enterovirus, WI-38 cells, read-out: Inhibition grade, Rhinovirus Type 81; for inhibition at 25 µg/mL: 25 μg/ml. On the procedure:
as §4, §5, §6

In experiment [10] the test system is 20 different rhinoviruses. Briefly: Summary of WI-38 tissue culture testing against 20 rhinoviruses. In kind it is cell-based. Conditions: 3.0 μg/ml. On the procedure: as §4, §5, §6

Regarding `CS(=O)(=O)c1ccc(Oc2ccc(C(=O)c3ccccc3)cc2)nc1` [Example 31, (4-((5-(methylsulfonyl)-2-pyridinyl)oxy)phenyl)phenylmethanone], the EC50 in [1] was found to be 12.5 µg/mL (≈ 35.4 µM); in experiment [2], 0.125 µg/mL (≈ 0.354 µM); in [3] it was 6.25 µg/mL (≈ 17.7 µM); in [4], 6.25 µg/mL (≈ 17.7 µM). Moreover, the “Continuous Oral Feeding X^2 (chi-square, deaths vs control)” value in [5] worked out at 24.397. The inhibition at 25 µg/mL in experiment [6] was under 50%; in experiment [7], under 50%; in experiment [8], at least 75%; in experiment [9], at least 75%.

On to `CCS(=O)(=O)c1ccc(Oc2ccc(Cl)cc2)nc1` [Example 42, 2-(4-chlorophenoxy)-5-(ethylsulfonyl)pyridine], for which the values for the EC50 in experiment [1], in [2] and in [4] were 6.25 µg/mL (≈ 21 µM), 3.12 µg/mL (≈ 10.5 µM) and about 50 µg/mL (≈ 168 µM), respectively. Also, in [5], the “Continuous Oral Feeding X^2 (chi-square, deaths vs control)” value was determined as 17.64. The inhibition at 12.5 µg/mL was under 50% in [6] (12.5 μg/ml), under 50% in experiment [7] (12.5 μg/ml), at least 75% in [8] (12.5 μg/ml) and at least 75% in [9] (12.5 μg/ml).

In the case of `CCS(=O)(=O)c1ccc(Oc2ccc(C(=O)c3ccccc3)cc2)nc1` [Example 43, (4-((5-(ethylsulfonyl)-2-pyridinyl)oxy)phenyl)phenylmethanone], the EC50 in experiment [1] is at most 3.12 µg/mL; in experiment [2] it was under 3.12 µg/mL; in experiment [3], 12.5 µg/mL (≈ 34 µM); in [4], 25 µg/mL (≈ 68 µM). Further, the “Continuous Oral Feeding X^2 (chi-square, deaths vs control)” value in experiment [5] turned out to be 20.44. Further, the inhibition at 3 µg/mL in [6] (3.0 μg/ml) is under 50%; in [7] (3.0 μg/ml) it was under 50%; in experiment [8] (3.0 μg/ml) it was under 50%; in experiment [9] (3.0 μg/ml), at least 75%. Besides, the “inhibition of the multiplication of the majority of the 20 test rhinoviruses” value in experiment [10] was “failed to inhibit the multiplication of the majority of the 20 test rhinoviruses”.

Regarding `CCS(=O)(=O)c1ccc(Oc2ccc(Cl)c(Cl)c2)nc1` [Example 47, 2-(3,4-dichlorophenoxy)-5-(ethylsulfonyl)pyridine], the values for the EC50 in [1] and in [2] were 0.312 µg/mL (≈ 0.941 µM) and 2.5 µg/mL (≈ 7.53 µM), respectively. Besides, in experiment [5], the “Continuous Oral Feeding X^2 (chi-square, deaths vs control)” value was found to be 1.10. The inhibition at 25 µg/mL was under 50% in [6], under 50% in experiment [7], at least 75% in experiment [8] and at least 75% in experiment [9].
